Eleven compounds from ChEMBL document CHEMBL1275542, “Characterization of TolC efflux pump proteins from Pasteurella multocida” (2008) can be followed below.

Values after ≈ are worked out from the molar mass of the structure shown.

Format in all cases: functional
Assay [1] concerns Pasteurella multocida. The experiment in a line: Antibacterial activity against Pasteurella multocida pm0527 after 24 hrs by broth dilution method. Particulars: pm0527, 24 h.
Assay [2] deals with Pasteurella multocida. Nature of the assay: Ratio of MIC for Pasteurella multocida AL435 to MIC for TolC deficient Pasteurella multocida pm1980.
In assay [3] the test system is Pasteurella multocida. Nature of the assay: Ratio of MIC for Pasteurella multocida AL435 to MIC for TolC deficient Pasteurella multocida pm0527.
Assay [4] relates to Pasteurella multocida. The experiment in a line: Antibacterial activity against TolC deficient Pasteurella multocida pm1980 after 24 hrs by broth dilution method. Particulars: pm1980, 24 h. (In general: In broth dilution the organism is exposed to a series of concentrations in liquid medium.)
Assay [5] concerns Pasteurella multocida. Nature of the assay: Antibacterial activity against Pasteurella multocida AL435 after 24 hrs by broth dilution method. Particulars: AL435, 24 h.
Assay [6] concerns Pasteurella multocida. Nature of the assay: Antibacterial activity against Pasteurella multocida pm1980 after 24 hrs by broth dilution method. Particulars: pm1980, 24 h.
Assay [7] relates to Pasteurella multocida. The experiment in a line: Antibacterial activity against TolC deficient Pasteurella multocida pm0527 after 24 hrs by broth dilution method. Particulars: pm0527, 24 h.

What is called MIC is the smallest concentration in the dilution series that meets the test's criterion for growth inhibition. A high value points to a need for much substance.

Regarding `CN(C)c1ccc2cc3ccc(N(C)C)cc3nc2c1` [ACRIDINE ORANGE], the MIC was 15 µg/mL (≈ 56.5 µM) against Pasteurella multocida [1]; 30 µg/mL (≈ 113 µM) against Pasteurella multocida [4]; 30 µg/mL (≈ 113 µM) against Pasteurella multocida [5]; 30 µg/mL (≈ 113 µM) in the assay on Pasteurella multocida [6]; 0.234 µg/mL (≈ 0.882 µM) in the assay with Pasteurella multocida [7]. Moreover, the Ratio stood at 1 in the assay with Pasteurella multocida [2] and 128 in the assay on Pasteurella multocida [3].
`CC(C)(O/N=C(\C(=O)N[C@@H]1C(=O)N2C(C(=O)[O-])=C(C[n+]3ccccc3)CS[C@H]12)c1csc(N)n1)C(=O)O` [CEFTAZIDIME]: the MIC against Pasteurella multocida [1] stood at 7.8 µg/mL (≈ 14.3 µM); in the assay on Pasteurella multocida [4], 31.2 µg/mL (≈ 57.1 µM); in the assay on Pasteurella multocida [5] it was 250 µg/mL (≈ 457 µM); with Pasteurella multocida [6], 31.2 µg/mL (≈ 57.1 µM); in the assay with Pasteurella multocida [7], 15.6 µg/mL (≈ 28.5 µM). In addition, the figures for the Ratio in the assay on Pasteurella multocida [2] and in the assay with Pasteurella multocida [3] were 8 and 16, respectively.
For the compound `O=C(N[C@H](CO)[C@H](O)c1ccc([N+](=O)[O-])cc1)C(Cl)Cl` [CHLORAMPHENICOL], the MIC against Pasteurella multocida [1] stood at 1 µg/mL (≈ 3.09 µM); against Pasteurella multocida [4] it was 1 µg/mL (≈ 3.09 µM); in the assay on Pasteurella multocida [5], 1 µg/mL (≈ 3.09 µM); in the assay with Pasteurella multocida [6], 1 µg/mL (≈ 3.09 µM); in the assay with Pasteurella multocida [7] it was 0.5 µg/mL (≈ 1.55 µM). The Ratio stood at 1 in the assay on Pasteurella multocida [2] and 2 in the assay with Pasteurella multocida [3].
Regarding `C[C@@H]1C[C@@H]([C@H](O)CC2CC(=O)NC(=O)C2)C(=O)[C@@H](C)C1` [CYCLOHEXIMIDE], the MIC in the assay with Pasteurella multocida [1] worked out at 500 µg/mL (≈ 1780 µM); with Pasteurella multocida [4], 500 µg/mL (≈ 1780 µM); in the assay on Pasteurella multocida [5] it was 500 µg/mL (≈ 1780 µM); against Pasteurella multocida [6] it was 500 µg/mL (≈ 1780 µM); with Pasteurella multocida [7] it was 250 µg/mL (≈ 889 µM). Further, the results for the Ratio with Pasteurella multocida [2] and in the assay with Pasteurella multocida [3] were 1 and 2, respectively.
Consider `O=P1(N(CCCl)CCCl)NCCCO1` (configuration not stated) [CYCLOPHOSPHAMIDE ANHYDROUS], for which the MIC against Pasteurella multocida [1] was 2000 µg/mL (≈ 7660 µM); in the assay with Pasteurella multocida [4] it was 2000 µg/mL (≈ 7660 µM); against Pasteurella multocida [5] it was 4000 µg/mL (≈ 15300 µM); in the assay on Pasteurella multocida [6], 2000 µg/mL (≈ 7660 µM); against Pasteurella multocida [7] it was 4000 µg/mL (≈ 15300 µM). Moreover, the Ratio in the assay with Pasteurella multocida [2] was determined as 2; in the assay with Pasteurella multocida [3], 1.
For the compound `C[C@H](CCC(=O)O)[C@H]1CC[C@H]2[C@@H]3CC[C@@H]4C[C@H](O)CC[C@]4(C)[C@H]3C[C@H](O)[C@]12C` [DEOXYCHOLIC ACID], the MIC with Pasteurella multocida [1] was found to be 312 µg/mL (≈ 796 µM); against Pasteurella multocida [4], 625 µg/mL (≈ 1590 µM); against Pasteurella multocida [5] it was 625 µg/mL (≈ 1590 µM); against Pasteurella multocida [6], 625 µg/mL (≈ 1590 µM); in the assay with Pasteurella multocida [7] it was 625 µg/mL (≈ 1590 µM). The Ratio in the assay with Pasteurella multocida [2] and in the assay with Pasteurella multocida [3] was 1 in each case.
As for `O[C@@H](CS)[C@@H](O)CS` [DITHIOTHREITOL], the MIC stood at 2000 µg/mL (≈ 13000 µM) in the assay with Pasteurella multocida [1]; 2000 µg/mL (≈ 13000 µM) in the assay on Pasteurella multocida [4]; 4000 µg/mL (≈ 25900 µM) against Pasteurella multocida [5]; 4000 µg/mL (≈ 25900 µM) with Pasteurella multocida [6]; 2000 µg/mL (≈ 13000 µM) against Pasteurella multocida [7]. Also, the Ratio with Pasteurella multocida [2] and with Pasteurella multocida [3] was 2 throughout.
On to `CC[C@H]1OC(=O)[C@H](C)[C@@H](O[C@H]2C[C@@](C)(OC)[C@@H](O)[C@H](C)O2)[C@H](C)[C@@H](O[C@@H]2O[C@H](C)C[C@H](N(C)C)[C@H]2O)[C@](C)(O)C[C@@H](C)C(=O)[C@H](C)[C@@H](O)[C@]1(C)O` [ERYTHROMYCIN], for which the MIC in the assay with Pasteurella multocida [1] turned out to be 1.88 µg/mL (≈ 2.56 µM); against Pasteurella multocida [4], 1.88 µg/mL (≈ 2.56 µM); against Pasteurella multocida [5] it was 3.8 µg/mL (≈ 5.18 µM); with Pasteurella multocida [6], 1.88 µg/mL (≈ 2.56 µM); against Pasteurella multocida [7] it was 0.47 µg/mL (≈ 0.64 µM). For the same compound, the Ratio in the assay with Pasteurella multocida [2] stood at 2; in the assay on Pasteurella multocida [3], 8.
In the case of `CCCCc1ccc(C(=O)O)nc1` [FUSARIC ACID], the MIC against Pasteurella multocida [1] was found to be 50 µg/mL (≈ 279 µM); in the assay with Pasteurella multocida [4] it was 50 µg/mL (≈ 279 µM); against Pasteurella multocida [5], 100 µg/mL (≈ 558 µM); in the assay with Pasteurella multocida [6], 100 µg/mL (≈ 558 µM); in the assay on Pasteurella multocida [7], 50 µg/mL (≈ 279 µM). The Ratio with Pasteurella multocida [2] and with Pasteurella multocida [3] was 2 each time.
Consider `CN(C)c1ccc(C(=C2C=CC(=[N+](C)C)C=C2)c2ccc(N(C)C)cc2)cc1.[Cl-]` [GENTIAN VIOLET], for which the MIC worked out at 6.25 µg/mL against Pasteurella multocida [1]; 12.5 µg/mL against Pasteurella multocida [4]; 12.5 µg/mL with Pasteurella multocida [5]; 12.5 µg/mL in the assay with Pasteurella multocida [6]; 3.12 µg/mL against Pasteurella multocida [7]. The Ratio is given as 1 in the assay on Pasteurella multocida [2] and 4 in the assay with Pasteurella multocida [3].
For the compound `CC[n+]1c(-c2ccccc2)c2cc(N)ccc2c2ccc(N)cc21.[Br-]` [HOMIDIUM BROMIDE], the MIC with Pasteurella multocida [1] worked out at 10 µg/mL; against Pasteurella multocida [4], 10 µg/mL; in the assay on Pasteurella multocida [5], 20 µg/mL; against Pasteurella multocida [6], 10 µg/mL; in the assay with Pasteurella multocida [7] it was 5 µg/mL. Besides, the figures for the Ratio in the assay on Pasteurella multocida [2] and in the assay on Pasteurella multocida [3] were 2 and 4, respectively.
